{"source": "patent US9567336B2", "about": "“Conjugated TLR7 and/or TLR8 and TLR2 agonists” (CAYLA, priority 2012, dated 2017)", "key": {"[1]": {"target": "T1, human TLR2 (Homo sapiens, UniProt O60603)", "T1 construct": "host or cells: HEK293 (HEK-Blue hTLR2)", "T1 sequence (O60603 21-784)": "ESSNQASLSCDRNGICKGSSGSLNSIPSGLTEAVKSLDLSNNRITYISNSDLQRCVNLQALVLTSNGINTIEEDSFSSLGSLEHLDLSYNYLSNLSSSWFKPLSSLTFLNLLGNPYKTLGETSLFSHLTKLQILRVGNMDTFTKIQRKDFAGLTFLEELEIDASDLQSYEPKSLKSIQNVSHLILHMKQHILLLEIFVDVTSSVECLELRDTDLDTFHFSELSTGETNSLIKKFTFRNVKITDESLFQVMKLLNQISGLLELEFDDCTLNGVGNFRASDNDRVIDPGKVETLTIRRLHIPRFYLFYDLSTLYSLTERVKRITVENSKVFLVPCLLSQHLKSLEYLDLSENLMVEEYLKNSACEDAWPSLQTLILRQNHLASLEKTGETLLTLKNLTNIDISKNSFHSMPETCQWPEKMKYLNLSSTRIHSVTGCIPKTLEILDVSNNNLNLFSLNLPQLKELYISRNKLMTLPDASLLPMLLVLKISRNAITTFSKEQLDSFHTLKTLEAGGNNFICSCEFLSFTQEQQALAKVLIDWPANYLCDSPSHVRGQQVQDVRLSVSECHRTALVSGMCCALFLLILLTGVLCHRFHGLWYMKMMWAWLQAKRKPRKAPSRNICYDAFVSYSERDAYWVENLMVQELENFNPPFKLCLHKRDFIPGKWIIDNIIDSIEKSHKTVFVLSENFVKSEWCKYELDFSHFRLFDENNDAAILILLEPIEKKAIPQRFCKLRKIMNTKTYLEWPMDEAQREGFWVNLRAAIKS", "assay": "HEK-Blue hTLR2 NF-κB/AP-1 SEAP reporter cell assay", "assay_type": "cell-based", "conditions": "HEK-Blue hTLR2 reporter cells, 10 μg/mL to 10 pg/ml, 24 hours, OD at 655 nm; FIGS. 3A, 3B", "protocol": "(§1) Some conjugated compounds of the invention were tested for their ability to activate TLR7 and TLR2 receptor signaling. Cell-based assays were carried out using TLR7 and TLR2 reporter cell lines (InvivoGen). The reporter cell lines are engineered HEK293 cells, a human embryonic kidney cell line (ATCC, CRL-1573) that stably express either murine TLR7 (HEK-Blue™ mTLR7) or human TLR7 (HEK-Blue™ hTLR7) or murine TLR2 (HEK-Blue™ mTLR2) or human TLR2 (HEK-Blue™ hTLR2) with an NF-κB-inducible secreted embryonic alkaline phosphatase (SEAP) as the reporter gene. The SEAP reporter gene is placed under the control of the NF-κB and AP-inducible promoter. Stimulation with the corresponding TLR ligand activates NF-κB and AP-1, which induces the production of SEAP. Detection of SEAP is measured following culturing cells in HEK-Blue™ Detection media (InvivoGen). HEK-Blue™ Detection contains a SEAP substrate, which upon hydrolysis by SEAP produces a colorimetric change allowing for detection of SEAP as the protein is secreted. […] These assays were carried out using RAW-Blue™ Cells (InvivoGen), derived from RAW 264.7 mouse leukemic monocytic macrophage cell line (ATCC, CRL 2278) stably overexpressing a NF-κB/AP-1 inducible SEAP reporter constructs.\n(§2) To perform the assay, cells were seeded on 96 well microliter plates at 50,000 or 100,000 cells per well for HEK-Blue™ Cells and RAW-Blue™ Cells respectively, and cultured at 37° C. in the presence of the conjugated compounds. The conjugated compounds were prepared as follows: First, stock solutions of the small molecule conjugated compounds of the invention were prepared in ethanol or water to a concentration of 10 mg/ml. A working dilution of the conjugated TLR7-TLR2 small molecules was made up in water and added to cells at a final range of concentrations from 10 μg/mL to 10 pg/ml. The working dilutions of the conjugated TLR7-TLR2 small molecules as the stated concentrations were directly added to the reporter cell lines and incubated at 37° C. for 24 hours. After 24 hours of incubation, the effect on reporter gene activity was determined by reading the OD at 655 nm using iMark™ Microplate Reader (BIO-RAD).\n(§3) The conjugated compounds were tested alone for their ability to specifically activate TLR7 and TLR2, alongside the known TLR7 activators R848 or CL264 (InvivoGen) and the TLR2 agonists Pam2CSK4 or Pam3CSK4 (InvivoGen). The specificity of the TLR activity was determined by use of reporter cell lines to the other TLRs (data not shown). […] The molecules show a tendency to activate mouse TLR7 with greater sensitivity than human TLR7. […] Furthermore, dose-dependent responses of the conjugated compounds indicate significant TLR activities of TLR7 and TLR2 compared to the corresponding controls."}, "[2]": {"target": "T2, murine TLR2 (Mus musculus, UniProt Q9QUN7)", "T2 construct": "host or cells: HEK293 (HEK-Blue mTLR2)", "T2 sequence (Q9QUN7 25-784)": "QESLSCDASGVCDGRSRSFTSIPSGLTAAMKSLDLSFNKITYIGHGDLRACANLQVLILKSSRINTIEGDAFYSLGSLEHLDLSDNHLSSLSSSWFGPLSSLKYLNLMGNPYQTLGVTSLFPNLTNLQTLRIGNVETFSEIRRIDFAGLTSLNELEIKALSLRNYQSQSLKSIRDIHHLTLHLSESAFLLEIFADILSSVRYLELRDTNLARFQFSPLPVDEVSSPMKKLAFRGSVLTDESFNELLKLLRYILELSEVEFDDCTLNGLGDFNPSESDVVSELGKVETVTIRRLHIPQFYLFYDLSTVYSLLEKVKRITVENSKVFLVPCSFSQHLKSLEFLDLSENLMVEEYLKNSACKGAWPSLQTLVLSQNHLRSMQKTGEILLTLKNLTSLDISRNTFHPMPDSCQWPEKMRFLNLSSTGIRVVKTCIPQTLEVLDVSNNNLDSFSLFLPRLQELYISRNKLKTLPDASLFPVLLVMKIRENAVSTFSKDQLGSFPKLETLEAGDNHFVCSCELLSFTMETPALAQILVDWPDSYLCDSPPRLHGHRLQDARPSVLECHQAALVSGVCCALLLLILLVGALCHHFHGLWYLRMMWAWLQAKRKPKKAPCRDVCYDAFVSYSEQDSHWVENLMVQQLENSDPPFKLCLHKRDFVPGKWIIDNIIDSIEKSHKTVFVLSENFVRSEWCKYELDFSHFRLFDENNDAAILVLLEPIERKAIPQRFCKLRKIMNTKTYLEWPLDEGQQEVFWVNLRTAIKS", "assay": "HEK-Blue mTLR2 NF-κB/AP-1 SEAP reporter cell assay", "assay_type": "cell-based", "conditions": "HEK-Blue mTLR2 reporter cells, 10 μg/mL to 10 pg/ml, 24 hours, OD at 655 nm; FIG. 4", "protocol": "as §1, §2, §3"}, "[3]": {"tested_on": "NF-κB in RAW-Blue™ Cells (RAW 264.7, endogenous TLR7 and TLR2)", "assay": "RAW-Blue Cells NF-κB/AP-1 inducible SEAP reporter assay", "assay_type": "cell-based, mouse", "conditions": "murine monocytic macrophage cell line RAW 264.7, 24 hours, OD at 655 nm; FIGS. 5A, 5B", "protocol": "as §1, §2, §3"}, "[4]": {"tested_on": "B16-F1 cells", "assay": "B16-F1 allograft tumor mouse model, intra-tumoral injections", "assay_type": "in vivo, C57BL/6 mice", "conditions": "3 intra-tumoral injections", "protocol": "To investigate whether administering in vivo a therapeutically effective amount of a composition concerned by the invention into a tumor environment affects tumor growth, C57BL/6 mice (Janvier S.A.S.) were shaved (on their backs) and were injected subcutaneously with approximately 50 μl (5×10^5) of viable B16-F1 cells (ATCC, CRL-6323) under anesthesia, using 7 mice per group. Once the tumor volume reached about 5 mm in diameter, around day 7 after tumor cells were grafted, the mice were divided into 2 groups. A first group (control) received intra-tumoral injections of vehicle (Glucose 5% ethanol 8% that is often used to facilitate drug solubilization and so enhance delivery), for a total of 3 injections. All animal work was carried out at the animal facility at the Institut de Pharmacologie et de Biologie Structurale (IPBS) in Toulouse, in accordance with institutional guidelines. […] By day 51 following the tumor cell graft, 60% of mice in the CL401 conjugated TLR7-TLR2 small molecule treated group were still alive. In contrast, by day 26, there was no survival of mice from the control group of vehicle treated. Tumor growth was monitored and measured with calipers after day 5 of grafting tumor cells into mice and then every 2 days after. […] Tumor volume in mm^3 was determined according to the formula V=W^2×L/2, where L=length (mm) and W=width (mm)"}}}
{"compound": "CCCCCCCCCCCCCCCC(=O)OCC(CSC[C@H](N)C(=O)Nc1ccc(Cn2c(O)nc3c(N)nc(NCCCC)nc32)cc1)OC(=O)CCCCCCCCCCCCCCC", "note": "(mixture of isomers) [CL401, (R)-3-(2-amino-3-(4-((6-amino-2-(butylamino)-8-hydroxy-9H-purin-9-yl)methyl)phenylamino)-3-oxopropylthio)propane-1,2-diyl dipalmitate]", "values": [{"measurement": "ability to activate TLR2 receptor (human TLR2)", "setting": "[1]", "value": "activate TLR2 receptor"}, {"measurement": "ability to activate TLR2 receptor (murine TLR2)", "setting": "[2]", "value": "activate TLR2 receptor"}, {"measurement": "induction of NF-κB in RAW-Blue cells", "setting": "[3]", "value": "activate NF-κB"}, {"measurement": "mice still alive (survival)", "setting": "[4]; by day 51 following the tumor cell graft, FIG. 6B", "value": 60, "unit": "%"}, {"measurement": "tumor growth", "setting": "[4]; compared to vehicle control mice, FIG. 6A", "value": "significantly reduced"}]}
